Tested on: 435261-313-R-J1-PDC tumor spheroid viability
Assay: Anticancer human tumor 435261-313-R-J1-PDC patient-derived colon adenocarcinoma cell line growth inhibition [PI3K]
Details: spheroids with HUVEC and MSC; for IC50: curve of first compound; for viability, T/C: stronger effect = lower value
In short: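 We assembled tumor spheroids that included a stromal compartment of HUVEC and MSCs, then exposed them to targeted agents alone and together with PI3K pathway inhibitors. Concentration series descended by half-log from clinically achievable Cmax levels. Viability served as the endpoint.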
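Also: spheroids exposed to compounds for 7 days.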

Structure (SMILES): C#Cc1c(F)ccc2cc(O)cc(-c3ncc4c(N5CC6CCC(C5)N6)nc(OCC56CCCN5CC(F)C6)nc4c3F)c12 (configuration not stated) + Cc1nc(NC(=O)N2CCCC2C(N)=O)sc1-c1ccnc(C(C)(C)C(F)(F)F)c1
- IC50 (second compound 0.0316 µM): 5470 nM
- IC50 (second compound 0.1 µM): 2130 nM
- IC50 (second compound 0.316 µM): 1060 nM
- IC50 (second compound 1 µM): < 31.6 nM
- IC50 (second compound 3.16 µM): < 31.6 nM
- IC50 (second compound 10 µM): < 31.6 nM
- viability, T/C (second compound 0.0316 µM, first compound 0.0316 µM): 73.7%
- viability, T/C (second compound 0.0316 µM, first compound 0.1 µM): 78%
- viability, T/C (second compound 0.0316 µM, first compound 0.316 µM): 102%
- viability, T/C (second compound 0.0316 µM, first compound 1 µM): 49%
- viability, T/C (second compound 0.0316 µM, first compound 3.16 µM): 70.5%
- viability, T/C (second compound 0.0316 µM, first compound 10 µM): 35.6%
- viability, T/C (second compound 0.1 µM, first compound 0.0316 µM): 61.1%
- viability, T/C (second compound 0.1 µM, first compound 0.1 µM): 77%
- viability, T/C (second compound 0.1 µM, first compound 0.316 µM): 98.3%
- viability, T/C (second compound 0.1 µM, first compound 1 µM): 58.2%
- viability, T/C (second compound 0.1 µM, first compound 3.16 µM): 43.8%
- viability, T/C (second compound 0.1 µM, first compound 10 µM): 18.4%
- viability, T/C (second compound 0.316 µM, first compound 0.0316 µM): 39.2%
- viability, T/C (second compound 0.316 µM, first compound 0.1 µM): 67.5%
- viability, T/C (second compound 0.316 µM, first compound 0.316 µM): 46.2%
- viability, T/C (second compound 0.316 µM, first compound 1 µM): 51.7%
- viability, T/C (second compound 0.316 µM, first compound 3.16 µM): 27.1%
- viability, T/C (second compound 0.316 µM, first compound 10 µM): 12.6%
- viability, T/C (second compound 1 µM, first compound 0.0316 µM): 23.7%
- viability, T/C (second compound 1 µM, first compound 0.1 µM): 27%
- viability, T/C (second compound 1 µM, first compound 0.316 µM): 28.4%
- viability, T/C (second compound 1 µM, first compound 1 µM): 27.9%
- viability, T/C (second compound 1 µM, first compound 3.16 µM): 13.9%
- viability, T/C (second compound 1 µM, first compound 10 µM): 7.05%
- viability, T/C (second compound 3.16 µM, first compound 0.0316 µM): 17.1%
- viability, T/C (second compound 3.16 µM, first compound 0.1 µM): 19.7%
- viability, T/C (second compound 3.16 µM, first compound 0.316 µM): 11.3%
- viability, T/C (second compound 3.16 µM, first compound 1 µM): 8.79%
- viability, T/C (second compound 3.16 µM, first compound 3.16 µM): 6.05%
- viability, T/C (second compound 3.16 µM, first compound 10 µM): 1.23%
- viability, T/C (second compound 10 µM, first compound 0.0316 µM): 9.19%
- viability, T/C (second compound 10 µM, first compound 0.1 µM): 6.14%
- viability, T/C (second compound 10 µM, first compound 0.316 µM): 3.65%
- viability, T/C (second compound 10 µM, first compound 1 µM): 3.37%
- viability, T/C (second compound 10 µM, first compound 3.16 µM): 2.05%
- viability, T/C (second compound 10 µM, first compound 10 µM): 0.32%

— PubChem BioAssay AID1963976 (Molecular Pharmacology Branch, DTP, NCI, 2024)
